Assay: mn = molality of the nth substance listed, in mol/kg
Settings: 101.3 kPa, Liquid; for viscosity: Capillary tube (Ostwald / Ubbelohde) method; for mass density: Pycnometric method

O=C(O)c1cccnc1 [3-carboxylpyridine] + O
Settings	mass density [kg/m3]	viscosity [mPa·s]
275.15 K, m1 = 0.0098	1000.41	1.675
275.15 K, m1 = 0.0199	1000.84	1.685
275.15 K, m1 = 0.023	1000.96	1.687
275.15 K, m1 = 0.0249	1001.1	1.687
275.15 K, m1 = 0.0299	1001.29	1.691
275.15 K, m1 = 0.0349	1001.51	1.686
275.15 K, m1 = 0.0402	1001.76	1.691
275.15 K, m1 = 0.0429	1001.91	1.693
275.15 K, m1 = 0.0453	1002.02	1.694
275.15 K, m1 = 0.0497	1002.2	1.69
275.15 K, m1 = 0.055	1002.46	1.7
275.15 K, m1 = 0.06	1002.7	1.702
275.15 K, m1 = 0.0646	1002.87	1.704
275.15 K, m1 = 0.0701	1003.17	1.706
275.15 K, m1 = 0.0801	1003.54	1.715
277.15 K, m1 = 0.0094	1000.39	1.572
277.15 K, m1 = 0.0201	1000.87	1.574
277.15 K, m1 = 0.0231	1000.98	1.574
277.15 K, m1 = 0.025	1001.1	1.576
277.15 K, m1 = 0.0296	1001.29	1.577
277.15 K, m1 = 0.0399	1001.69	1.58
277.15 K, m1 = 0.043	1001.86	1.582
277.15 K, m1 = 0.0451	1001.97	1.583
277.15 K, m1 = 0.0499	1002.23	1.586
277.15 K, m1 = 0.055	1002.34	1.586
277.15 K, m1 = 0.06	1002.64	1.587
277.15 K, m1 = 0.0631	1002.69	1.591
277.15 K, m1 = 0.065	1002.84	1.591
277.15 K, m1 = 0.0705	1003.13	1.592
279.15 K, m1 = 0.0103	1000.39	1.474
279.15 K, m1 = 0.0198	1000.79	1.479
279.15 K, m1 = 0.0229	1000.95	1.485
279.15 K, m1 = 0.03	1001.23	1.489
279.15 K, m1 = 0.0351	1001.46	1.49
279.15 K, m1 = 0.04	1001.74	1.495
279.15 K, m1 = 0.0431	1001.79	1.494
279.15 K, m1 = 0.0454	1001.94	1.496
279.15 K, m1 = 0.0501	1002.16	1.499
279.15 K, m1 = 0.0551	1002.39	1.503
279.15 K, m1 = 0.06	1002.54	1.5
279.15 K, m1 = 0.0631	1002.68	1.502
279.15 K, m1 = 0.065	1002.79	1.503
279.15 K, m1 = 0.0701	1003.04	1.509

NC(=O)c1cccnc1 [3-pyridinecarboxamide] + O
Settings	mass density [kg/m3]	viscosity [mPa·s]
275.15 K, m1 = 0.0101	1000.22	1.683
275.15 K, m1 = 0.0201	1000.53	1.687
275.15 K, m1 = 0.03	1000.83	1.691
275.15 K, m1 = 0.035	1001.02	1.697
275.15 K, m1 = 0.0401	1001.11	1.703
275.15 K, m1 = 0.0452	1001.26	1.707
275.15 K, m1 = 0.0502	1001.51	1.71
275.15 K, m1 = 0.0598	1001.74	1.711
275.15 K, m1 = 0.0651	1001.85	1.714
275.15 K, m1 = 0.07	1002.13	1.718
275.15 K, m1 = 0.0749	1002.21	1.724
275.15 K, m1 = 0.08	1002.41	1.721
275.15 K, m1 = 0.0852	1002.57	1.724
275.15 K, m1 = 0.1004	1002.93	1.73
277.15 K, m1 = 0.01	1000.25	1.578
277.15 K, m1 = 0.0202	1000.54	1.583
277.15 K, m1 = 0.03	1000.97	1.588
277.15 K, m1 = 0.0348	1000.98	1.59
277.15 K, m1 = 0.045	1001.27	1.595
277.15 K, m1 = 0.05	1001.42	1.598
277.15 K, m1 = 0.0601	1001.66	1.603
277.15 K, m1 = 0.0652	1001.86	1.605
277.15 K, m1 = 0.0691	1002	1.607
277.15 K, m1 = 0.075	1002.19	1.61
277.15 K, m1 = 0.0801	1002.29	1.612
277.15 K, m1 = 0.0849	1002.44	1.615
279.15 K, m1 = 0.02	1000.51	1.481
279.15 K, m1 = 0.0302	1000.82	1.482
279.15 K, m1 = 0.0347	1000.97	1.485
279.15 K, m1 = 0.0348	1000.92	1.485
279.15 K, m1 = 0.04	1001.13	1.487
279.15 K, m1 = 0.0451	1001.28	1.488
279.15 K, m1 = 0.05	1001.45	1.493
279.15 K, m1 = 0.0598	1001.7	1.495
279.15 K, m1 = 0.0699	1001.95	1.5
279.15 K, m1 = 0.0749	1002.04	1.504
279.15 K, m1 = 0.0799	1002.19	1.507
279.15 K, m1 = 0.0849	1002.36	1.51
279.15 K, m1 = 0.0897	1002.44	1.513
279.15 K, m1 = 0.1004	1002.78	1.52

Source: the NIST ThermoML archive (doi:10.1016/j.jct.2014.02.024)
